Several values for one entry are separate records, joined by “and”; a condition that tells them apart may be missing. Equal entries are not always repeated.
Key:
[1] = target: T1, IKZF2 (Homo sapiens, UniProt Q96SW2+Q9UKS7); assay: IKZF2 immunoblotting in MOLM-13 cells; format: cell-based
T1 construct: endogenous in cells; host or cells: MOLM-13
Procedure: We further tested the specificity of SJ3149 considering that previously reported CK1α degraders also lead to degradation of IKZF2[26]. Even though there was a negligible change in IKZF2 protein level in our proteomics studies, we sought to confirm this observation by immunoblotting. In a similar experiment to those shown in Fig. 2b, MOLM-13 cells were treated with SJ3149 for 4 h at increasing concentrations ranging from 1 nM to 10 µM and analyzed by immunoblotting to quantify IKZF2 and CK1α proteins. While at 4 nM concentration SJ3149 induced 50% degradation of CK1α protein, IKZF2 levels were reduced by only ~40% at the highest dose (10 μM), confirming the selectivity of SJ3149 for CK1α over IKZF2 (Supplementary Fig. 6d). These collective data support the claim that CK1α degradation is responsible for the observed cellular phenotypes induced by SJ3149 treatment.
Frozen pellets of ~1 million cells were lysed in 150 µl of SDS lysis buffer (60 mM Tris/HCl pH 7, 10% glycerol, 2% SDS, 5% beta-mercaptoethanol, 0.02% bromophenol blue, 0.5% protease and phosphatase inhibitor cocktail (Sigma Aldrich)). When cells were resuspended, samples were heated for 3 min at 99 °C then put on ice. Samples were then fragmented by sonication for 10 0.5-s pulses (550 Sonic Dismembrator, Fisher Scientific) and heated again at 99 °C for 2 min. 15 μl of each sample was added to the wells of a 4–20% polyacrylamide gel (Bio-Rad). A mixture of 2 μl of Precision Plus Protein Unstained Standards and 2 μl of Precision Plus Protein All Blue Standards (Bio-Rad) was used for the size marker. After electrophoresis, gels were transferred to nitrocellulose membrane using the Bio-Rad Trans-Blot Turbo system on the mixed molecular weight setting. Membranes were blocked for 1 h in Li-Cor Intercept Blocking Buffer then probed overnight at 4 °C with primary antibody, at 1:1000 dilution or 1:2000 dilution for actin, in Li-Cor Intercept Antibody Diluent. The following morning, membranes were washed three times for 5 min with TBS + 0.05% Tween-20, probed with fluorescent secondary antibodies (goat anti-rabbit IRDye 800CW and goat anti-mouse IRDye 680RD, Li-Cor) for 1 h at room temperature in the dark at 1:10,000 dilution, and washed again 3 times. Blots were imaged with the Li-Cor Odyssey CLx and analyzed using Image Studio Version 5.2.
Primary antibodies used: rabbit anti-CK1α, ab206652, clone EPR19824, Abcam rabbit anti-p21, 2947S, clone 12D1, Cell Signaling Technology rabbit anti-Helios (IKZF2), 42427, clone D8W4X, Cell Signaling Technology mouse anti-beta actin, 3700S, clone 8H10D10, Cell Signaling Technology

[2] = tested on: β-catenin; assay: HiBiT-β-catenin stabilization, live-cell kinetic (HEK293 cells); format: cell-based
Procedure: Next, TMT-proteomics studies were performed to determine broader degradation selectivity profiles of our two lead compounds. […] As expected, increased protein levels of p53, p21, and β-catenin were detected in the treated cells. To investigate the relationship between β-catenin stabilization relative to CK1α degradation, kinetic monitoring of endogenously tagged HiBiT-β-catenin was performed in live cells and compared to our measurements of CK1α degradation kinetics. Treatment of cells with the lead compounds from each series led to dose-dependent stabilization of β-catenin levels with slower kinetics compared to the observed rapid degradation of CK1α. […]
White 96-well assay plates (Corning, Cat. # 3017) were seeded with 30,000 cells/well in growth media for CK1α-HiBiT HEK293 LgBiT stable and HiBiT-β-catenin HEK293 LgBiT stable and incubated overnight at 37 °C and 5% CO2. […] Luminescence was allowed to equilibrate for all plates for 2.5 h. […] Luminescence was read every 5 min for 24 h. At the end of all 24-h cycles, CellTiter Glo 2.0 (Promega, Cat. #G9242) was added to the plates, incubated for at least 10 min and luminescence was read using the GloMax Discover.
Relative protein level was determined based on normalization to the DMSO control and reported at Fractional RLUs. […]

[3] = western blot quantification, relative to DMSO

T1 sequence (Q9UKS7 whole entry): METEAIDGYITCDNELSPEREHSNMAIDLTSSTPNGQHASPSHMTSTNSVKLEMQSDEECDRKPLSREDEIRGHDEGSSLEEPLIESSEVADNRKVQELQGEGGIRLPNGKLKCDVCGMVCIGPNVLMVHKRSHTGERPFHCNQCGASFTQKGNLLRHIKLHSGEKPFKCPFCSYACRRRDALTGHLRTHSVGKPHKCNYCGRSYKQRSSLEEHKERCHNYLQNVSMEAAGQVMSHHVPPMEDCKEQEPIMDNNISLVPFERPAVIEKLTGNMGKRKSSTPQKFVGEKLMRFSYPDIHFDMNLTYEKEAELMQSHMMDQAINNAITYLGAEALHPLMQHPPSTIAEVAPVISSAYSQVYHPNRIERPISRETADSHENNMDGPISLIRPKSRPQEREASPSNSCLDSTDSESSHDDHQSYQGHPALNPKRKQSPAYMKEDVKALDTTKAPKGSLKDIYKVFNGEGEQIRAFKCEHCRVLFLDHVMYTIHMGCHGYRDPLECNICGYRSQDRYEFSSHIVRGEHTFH
T1 sequence (Q96SW2 whole entry): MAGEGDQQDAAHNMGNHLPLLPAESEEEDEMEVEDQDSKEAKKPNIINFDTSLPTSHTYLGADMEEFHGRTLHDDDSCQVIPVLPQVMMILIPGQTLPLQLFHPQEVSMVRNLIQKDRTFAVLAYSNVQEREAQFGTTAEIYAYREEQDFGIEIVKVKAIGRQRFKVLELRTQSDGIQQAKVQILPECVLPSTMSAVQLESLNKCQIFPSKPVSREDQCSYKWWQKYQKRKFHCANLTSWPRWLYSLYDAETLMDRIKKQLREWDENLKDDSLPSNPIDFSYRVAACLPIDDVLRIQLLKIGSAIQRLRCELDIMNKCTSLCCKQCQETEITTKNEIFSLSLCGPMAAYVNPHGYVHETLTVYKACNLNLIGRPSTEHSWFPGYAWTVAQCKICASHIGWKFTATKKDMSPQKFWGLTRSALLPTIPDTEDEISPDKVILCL
T1 sequence (Q16531 whole entry partner): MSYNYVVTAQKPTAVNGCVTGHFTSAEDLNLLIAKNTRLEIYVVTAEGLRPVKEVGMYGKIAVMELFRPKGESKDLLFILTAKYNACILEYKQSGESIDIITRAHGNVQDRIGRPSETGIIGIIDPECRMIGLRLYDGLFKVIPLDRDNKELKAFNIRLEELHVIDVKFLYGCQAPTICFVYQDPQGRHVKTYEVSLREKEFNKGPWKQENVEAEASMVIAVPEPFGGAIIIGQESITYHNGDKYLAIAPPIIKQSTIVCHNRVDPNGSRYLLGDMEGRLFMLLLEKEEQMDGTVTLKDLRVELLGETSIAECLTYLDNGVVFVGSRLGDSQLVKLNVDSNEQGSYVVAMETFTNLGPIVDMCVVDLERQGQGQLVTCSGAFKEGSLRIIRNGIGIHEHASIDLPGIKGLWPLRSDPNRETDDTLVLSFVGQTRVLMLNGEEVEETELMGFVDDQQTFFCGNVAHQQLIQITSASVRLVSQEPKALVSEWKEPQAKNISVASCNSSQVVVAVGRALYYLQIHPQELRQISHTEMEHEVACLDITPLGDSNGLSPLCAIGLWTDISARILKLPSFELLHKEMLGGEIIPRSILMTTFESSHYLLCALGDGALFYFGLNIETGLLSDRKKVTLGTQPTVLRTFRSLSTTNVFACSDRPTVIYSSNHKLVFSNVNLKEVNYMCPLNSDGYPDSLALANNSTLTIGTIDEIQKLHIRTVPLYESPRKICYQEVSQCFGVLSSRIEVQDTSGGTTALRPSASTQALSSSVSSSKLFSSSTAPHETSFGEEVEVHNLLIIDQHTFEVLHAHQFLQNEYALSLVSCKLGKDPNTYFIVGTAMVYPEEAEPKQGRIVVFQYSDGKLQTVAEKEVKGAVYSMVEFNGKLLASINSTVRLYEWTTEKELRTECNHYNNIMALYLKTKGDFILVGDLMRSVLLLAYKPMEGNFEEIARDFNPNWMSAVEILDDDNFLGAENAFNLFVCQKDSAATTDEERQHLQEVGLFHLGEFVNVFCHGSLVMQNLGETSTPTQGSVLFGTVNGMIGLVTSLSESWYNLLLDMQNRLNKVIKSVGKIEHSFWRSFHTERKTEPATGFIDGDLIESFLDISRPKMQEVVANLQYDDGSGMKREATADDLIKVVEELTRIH

## O=C1CCC(N2Cc3cc(Nc4noc5ccccc45)ccc3C2=O)C(=O)N1 (stereo not drawn) [SJ3149]
[1]; MOLM-13, 10 μM, 4 h
  IKZF2 level reduction: ~ 40%
[1]; SJ3149 0.001 uM, relative to DMSO
  IKZF2 western blot quantification: 1.093 and 0.9655 and 0.8978
[1]; SJ3149 0.01 uM, relative to DMSO
  IKZF2 western blot quantification: 0.8205 and 1.143 and 0.8035
[1]; SJ3149 0.1 uM, relative to DMSO
  IKZF2 western blot quantification: 0.5925 and 0.7587 and 0.8297
[1]; SJ3149 1 uM, relative to DMSO
  IKZF2 western blot quantification: 0.5412 and 0.7758 and 0.64
[1]; SJ3149 10 uM, relative to DMSO
  IKZF2 western blot quantification: 0.4999 and 0.6664 and 0.6326
[1]; [3]
  Bottom (sigmoidal 4PL fit) of IKZF2 protein level: 0.61
  Top (sigmoidal 4PL fit) of IKZF2 protein level: 1.002
[2]
  Time to detectable increase of β-catenin: ≤ 30 min
